Test results reported in PMC5995839, “Exploring the role of unnatural amino acids in antimicrobial peptides” (Scientific Reports, 2018).
Values after ≈ are worked out from the molar mass of the structure shown. Square brackets hold non-standard residues; d marks the D form. Peptide text beside a SMILES is read from it. * marks the point of attachment. 2Nal = N[C@@H](Cc1ccc2ccccc2c1)C(=O)O; Ahx = NCCCCCC(=O)O; StBu = CC(C)(C)S*; tBu = CC(C)(C)*

Experiments:
[1] = system: Escherichia coli ATCC 25922; assay type: cell-based
Protocol: The antimicrobial activity of the three designed peptides was tested against Escherichia coli (ATCC® 25922™), Pseudomonas aeruginosa (ATCC® 27853™), Pseudomonas aeruginosa PAO1 wild type strain, Bacillus subtilis subsp. spizizenii (ATCC® 6633™), Staphylococcus aureus (ATCC® 6538 P™) and Staphylococcus aureus MRSA WKZ-2 (kindly provided by collection of Prof. Edwin Veldhuizen, University of Utrecht, Holland). MIC assays were performed by broth microdilution method as described elsewhere[34] using Nutrient Broth (Becton Dickinson Difco, Franklin Lakes, NJ) as bacterial growth medium. […] Experiments were performed three times for each peptide.
Following the incubation time, MIC assays were carried out as previously described. […] Experiments were performed five times for each peptide.

[2] = system: Escherichia coli (ATCC 25922); assay type: cell-based
Protocol: (§2) MIC assays were performed by broth microdilution method as described elsewhere[34] using Nutrient Broth (Becton Dickinson Difco, Franklin Lakes, NJ) as bacterial growth medium. […] Experiments were performed three times for each peptide.

[3] = system: Bacillus subtilis subsp. spizizenii (ATCC 6633); assay type: cell-based
Protocol: as §2

[4] = system: Pseudomonas aeruginosa (ATCC 27853); assay type: cell-based
Protocol: as §2

[5] = system: Pseudomonas aeruginosa PAO1 wild type strain; assay type: cell-based
Protocol: as §2

[6] = system: Staphylococcus aureus (ATCC 6538P); assay type: cell-based
[7] = system: Staphylococcus aureus MRSA WKZ-2; assay type: cell-based
Protocol: as §2

[8] = system: human keratinocytes cells HaCaT; assay type: cell-based
Protocol: (§1) Cytotoxic effects of the three peptides on human epithelial colorectal adenocarcinoma cells (CaCo-2) and on aneuploid immortal keratinocyte cells line from adult human skin (HaCaT) were assessed by performing the (3-(4,5-dimethylthiazol-2-yl)−2,5 diphenyltetrazolium bromide (MTT) reduction inhibition assay. Both human cell lines were obtained from the American Type Culture Collection (ATCC, Manassas, VA, USA) and grown at 37 °C in a humidified incubator containing 5% CO2 in Dulbecco’s modified Eagle’s medium (DMEM) supplemented with 10% fetal bovine serum, 4 mM glutamine, 400 units/mL penicillin, and 0.1 mg mL^−1 streptomycin. Cells were plated on 96-well plates at a density of 5 × 10^3 per well in 100 μL of medium and incubated at 37 °C with 5% CO2. Medium was then replaced with 100 μl of fresh media containing peptide solution to a final concentration ranging from 0.1–10 μM/well. After a time of incubation ranging from 18 to 48 hours at 37 °C, the peptide-containing medium was removed, and 10 μL of a 5 mg mL^−1 MTT stock solution in DMEM without red phenol, corresponding to a final concentration of […] in DMEM (final volume of 100 μL), was added to the cells. […] Cell survival was reported as the relative absorbance, with respect to control, of blue formazan measured at 570 nm with a Synergy Multi Plate Reader. […]

[9] = system: human intestinal CaCo-2 cells; assay type: cell-based
Protocol: as §1

[10] = Relative hydrophobicity by retention in reverse phase HPLC; assay type: physicochemical; conditions: chromatographic, Fig. S4 and Table S1 (numbers not available here)
Protocol: Crude peptides were purified by preparative HPLC on a Shimadzu LC-8A system. A Vydac C18 column (22 mm × 250 mm; 10 μm) was used, eluted with a H2O 0.1% TFA, (eluent A) and CH3CN 0.1% TFA (eluent B) linear gradient at 22 mL min^−1 flow rate. Fractions were separated according to their absorbance at 210 nm by an online UV detector (Shimadzu). Peptide fractions were then checked for their purity by analytical LCMS. Peptide identities were confirmed by LCMS analysis on a Shimadzu 20ADxr coupled with a Shimadzu ESI-IT-TOF mass detector (probe voltage 4.5 kV; probe temperature 25 °C; desolvation temperature 250 °C; detector voltage 1.5 kV). All analyses were performed with a Vydac C18 column (2.1 mm × 100 mm; 5 μm), eluted with a H2O 0.05% TFA, (eluent A) and CH3CN 0.05% TFA (eluent B) linear gradient, from 5% to 95% (solvent B), over 30 minutes, at 0.2 ml min^−1 flow rate. Pure fractions were pooled and lyophilized as TFA salts (purity >95%). Peptide samples for biological assays were further subjected to counter ion exchange on a DEAE-Sephadex weak […] resin. Briefly, peptide solutions in water were loaded on a 0.5 mL syringe column, and then eluted by decreasing the pH with an acetate buffer at pH 4.3 to obtain the desired peptide acetate salt. Further, the relative hydrophobicities of P9 peptides were evaluated through their retention in reverse phase HPLC.

SMILES	Fold change (16 h) [1]	Fold change (1 h) [1]	MIC, Preincubation for 1 h in 10% serum ([1]; E. coli ATCC 25922, peptide incubated 1 h in 10% fetal bovine serum at 37 °C before MIC assay, five replicates)	MIC, E. coli ATCC25922 [2]	MIC, B. spizizenii ATCC6633 [3]	MIC, P. aeruginosa ATCC27853 [4]	MIC, PAO1 Wt [5]	MIC, S. aureus ATCC6538P [6]	MIC, S. aureus MRSA [7]	relative hydrophobicity (retention in reverse phase HPLC) [10]	toxic effects on HaCaT cells at low doses [8]	toxic effect on CaCo2 cells at low doses, compared with HaCaT [9]
CC(C)(C)SC[C@H](NC(=O)CCCCCN)C(=O)N[C@@H](CCCCN)C(=O)N[C@@H](Cc1ccc2ccccc2c1)C(=O)N[C@@H](Cc1ccc2ccccc2c1)C(=O)N[C@@H](CCCCN)C(=O)N[C@@H](CCCCN)C(=O)N[C@@H](CSC(C)(C)C)C(=O)NCCCCCC(N)=O [P9Nal(SR)] (H-[Ahx]C(tBu)K[2Nal][2Nal]KKC(tBu)[Ahx]-NH2)	>8	1		10 µM (≈ 13.4 µg/mL)	40 µM (≈ 53.6 µg/mL)	1.25 µM (≈ 1.68 µg/mL)	10 µM (≈ 13.4 µg/mL)	40 µM (≈ 53.6 µg/mL)	40 µM (≈ 53.6 µg/mL)		no evident toxic effects	slightly higher
CC(C)(C)SSC[C@H](NC(=O)CCCCCN)C(=O)N[C@@H](CCCCN)C(=O)N[C@@H](Cc1ccc2ccccc2c1)C(=O)N[C@@H](Cc1ccc2ccccc2c1)C(=O)N[C@@H](CCCCN)C(=O)N[C@@H](CCCCN)C(=O)N[C@@H](CSSC(C)(C)C)C(=O)NCCCCCC(N)=O [P9Nal(SS)] (H-[Ahx]C(StBu)K[2Nal][2Nal]KKC(StBu)[Ahx]-NH2)		1		10 µM (≈ 14 µg/mL)	10 µM (≈ 14 µg/mL)	2.5 µM (≈ 3.51 µg/mL)	10 µM (≈ 14 µg/mL)	10 µM (≈ 14 µg/mL)	20 µM (≈ 28.1 µg/mL)	most hydrophobic		

The next lines start with results.

Fold change (16 h) [1]	Fold change (1 h) [1]	MIC, Preincubation for 1 h in 10% serum ([1]; E. coli ATCC 25922, peptide incubated 1 h in 10% fetal bovine serum at 37 °C before MIC assay, five replicates)	MIC, E. coli ATCC25922 [2]	MIC, B. spizizenii ATCC6633 [3]	MIC, P. aeruginosa ATCC27853 [4]	MIC, PAO1 Wt [5]	MIC, S. aureus ATCC6538P [6]	MIC, S. aureus MRSA [7]	relative hydrophobicity (retention in reverse phase HPLC) [10]	SMILES	toxic effects on HaCaT cells at low doses [8]	toxic effect on CaCo2 cells at low doses, compared with HaCaT [9]
>16										CC(=O)N[C@@H](CC(C)C)C(=O)N[C@@H](CCCNC(=N)N)C(=O)N[C@H](C(=O)N[C@@H](CCCNC(=N)N)C(=O)N[C@@H](CC(C)C)C(=O)N[C@@H](C)C(=O)N[C@@H](CO)C(=O)N[C@@H](Cc1c[nH]cn1)C(=O)N[C@@H](CC(C)C)C(=O)N[C@@H](CCCNC(=N)N)C(=O)N[C@@H](CCCCN)C(=O)N[C@@H](CC(C)C)C(=O)N[C@@H](CCCNC(=N)N)C(=O)N[C@@H](CCCCN)C(=O)N[C@@H](CCCNC(=N)N)C(=O)N[C@@H](CC(C)C)C(=O)N[C@@H](CC(C)C)C(=O)N[C@@H](CCCNC(=N)N)C(N)=O)C(C)C [Ac-ApoE(133–150)-NH2, reference compound]		
>16	>16	completely lost antimicrobial activity								CC(C)C[C@H](NC(=O)[C@H](CCCNC(=N)N)NC(=O)[C@@H](NC(=O)[C@H](CCCNC(=N)N)NC(=O)[C@@H](N)CC(C)C)C(C)C)C(=O)N[C@@H](C)C(=O)N[C@@H](CO)C(=O)N[C@@H](Cc1c[nH]cn1)C(=O)N[C@@H](CC(C)C)C(=O)N[C@@H](CCCNC(=N)N)C(=O)N[C@@H](CCCCN)C(=O)N[C@@H](CC(C)C)C(=O)N[C@@H](CCCNC(=N)N)C(=O)N[C@@H](CCCCN)C(=O)N[C@@H](CCCNC(=N)N)C(=O)N[C@@H](CC(C)C)C(=O)N[C@@H](CC(C)C)C(=O)N[C@@H](CCCNC(=N)N)C(=O)O [ApoE(133–150), reference compound]		
	1		10 µM (≈ 13.8 µg/mL)	40 µM (≈ 55.3 µg/mL)	2.5 µM (≈ 3.46 µg/mL)	10 µM (≈ 13.8 µg/mL)	20 µM (≈ 27.7 µg/mL)	40 µM (≈ 55.3 µg/mL)		CC(C)(C)SSC[C@H](NC(=O)CCCCCN)C(=O)N[C@@H](CCCCN)C(=O)N[C@@H](Cc1c[nH]c2ccccc12)C(=O)N[C@@H](Cc1c[nH]c2ccccc12)C(=O)N[C@@H](CCCCN)C(=O)N[C@@H](CCCCN)C(=O)N[C@@H](CSSC(C)(C)C)C(=O)NCCCCCC(N)=O [P9Trp(SS)] (H-[Ahx]C(StBu)KWWKKC(StBu)[Ahx]-NH2)		
